Test results reported in ChEMBL document CHEMBL6109128, “Copper-KRAS-COX2 Axis: A Therapeutic Vulnerability in Pancreatic Cancer” (J Med Chem, 2025).
Activity calls are given as the source filed them. No cut-off for these calls is given here.

Key:
[1] = system: KPC2; assay: Antitumor activity against mouse KPC2 cells implanted in FVB mouse assessed as reduction in tumor burden at 25 mg/kg, po measured after 14 days; assay type: functional, organism-based; conditions: time 14.0 day
[2] = system: CT26; assay: Antitumor activity against mouse CT26 cells implanted in BALB/c mouse assessed as tumor growth inhibition at 50 to 100 mg/kg, po administered for 14 days in presence of celecoxib; assay type: functional, organism-based; conditions: dose 50-100 mg/kg, time 14.0 day
[3] = Drug concentration in mouse plasma at 15 mg/kg, iv measured at 24 hrs; assay type: ADME, organism-based
[4] = Drug concentration in mouse heart at 30 mg/kg, po measured at 7 hrs; assay type: ADME, organism-based; conditions: read-out: Ct
[5] = system: HCT-116; assay: Induction of apoptosis in human HCT-116 cells assessed as upregulation of cleaved PARP level measured for 48 hrs by Western blot analysis; assay type: functional, cell-based; conditions: dose 10.0 µM
[6] = Drug concentration in mouse liver at 30 mg/kg, po measured at 24 hrs; assay type: ADME, organism-based; conditions: read-out: Ct
[7] = system: CT26; assay: Antitumor activity against mouse CT26 cells implanted in BALB/c mouse assessed as increase in cleaved caspase-3 level at 50 mg/kg, po measured after 14 days; assay type: functional, organism-based; conditions: time 14.0 day
[8] = Drug concentration in mouse kidney at 30 mg/kg, po measured at 7 hrs; assay type: ADME, organism-based; conditions: read-out: Ct
[9] = Drug concentration in mouse kidney at 30 mg/kg, po measured at 24 hrs; assay type: ADME, organism-based; conditions: read-out: Ct
[10] = Toxicity in BALB/c mouse assessed as pancrease damage at 20 mg/kg, po measured after 29 days by H and E staining based analysis; assay type: organism-based; conditions: in vivo, 696 h, time 29 day
[11] = Drug concentration in mouse heart at 15 mg/kg, iv measured at 7 hrs; assay type: ADME, organism-based; conditions: read-out: Ct
[12] = Drug concentration in mouse plasma at 15 mg/kg, iv measured at 7 hrs; assay type: ADME, organism-based
[13] = Drug concentration in mouse kidney at 15 mg/kg, iv measured at 24 hrs; assay type: ADME, organism-based; conditions: read-out: Ct
[14] = system: CT26; assay: Antitumor activity against mouse CT26 cells implanted in BALB/c mouse assessed as increase in animal survival at 100 mg/kg, po measured after 14 days; assay type: functional, organism-based; conditions: time 14.0 day
[15] = Toxicity in BALB/c mouse assessed as maximum tolerated dose at IV measured for 7 days; conditions: in vivo, time 7 day
[16] = Toxicity in BALB/c mouse assessed as spleen damage at 20 mg/kg, po measured after 29 days by H and E staining based analysis; assay type: organism-based; conditions: in vivo, 696 h, time 29 day
[17] = Toxicity in BALB/c mouse assessed as heart damage at 20 mg/kg, po measured after 29 days by H and E staining based analysis; assay type: organism-based; conditions: in vivo, 696 h, time 29 day
[18] = system: CT26; assay: Antitumor activity against mouse CT26 cells implanted in BALB/c mouse assessed as inhibition of tumor growth at 100 mg/kg, po measured after 14 days; assay type: functional, organism-based; conditions: time 14.0 day
[19] = Drug concentration in mouse liver at 15 mg/kg, iv measured at 7 hrs; assay type: ADME, organism-based; conditions: read-out: Ct
[20] = Toxicity in BALB/c mouse assessed as liver damage at 20 mg/kg, po measured after 29 days by H and E staining based analysis; assay type: organism-based; conditions: in vivo, 696 h, time 29 day
[21] = system: CT26; assay: Antitumor activity against mouse CT26 cells implanted in BALB/c mouse assessed as increase in cleaved PARP level at 140 mg/kg, iv administered for 3 days; assay type: functional, organism-based; conditions: time 3.0 day
[22] = Toxicity in BALB/c mouse assessed as kidney damage at 20 mg/kg, po measured after 29 days by H and E staining based analysis; assay type: organism-based; conditions: in vivo, 696 h, time 29 day
[23] = system: Panc02; assay: Antitumor activity against mouse Panc02 cells xenografted in C57BL/6 mouse assessed as tumor growth inhibition at 20 to 40 mg/kg, ip measured for 21 to 28 days; assay type: functional, organism-based; conditions: dose 20-40 mg/kg, time 21-28 day
[24] = Drug concentration in mouse heart at 30 mg/kg, po measured at 24 hrs; assay type: ADME, organism-based; conditions: read-out: Ct
[25] = Toxicity in BALB/c mouse assessed as stomach damage at 20 mg/kg, po measured after 29 days by H and E staining based analysis; assay type: organism-based; conditions: in vivo, 696 h, time 29 day
[26] = Drug concentration in mouse plasma at 30 mg/kg, po measured at 24 hrs; assay type: ADME, organism-based
[27] = Drug concentration in mouse liver at 15 mg/kg, iv measured at 24 hrs; assay type: ADME, organism-based; conditions: read-out: Ct

In the case of `N[C@@H]1[C@H]2CN(c3cnc(C(=O)Nc4cc(F)cc5cccnc45)cn3)C[C@@H]12`, the Activity [1] is reported as “Active”, the TGI [2] is reported as “Active” and the concentration at 24 h [3] is reported as 7 ng/mL. The concentration at 7 h [4] was 1840 ng/g, the Activity [5] was “Dose-dependent-effect” and the concentration at 24 h [6] was 92 ng/g. For the same compound, the Activity [7] was “Active”, the concentration at 7 h [8] was 6100 ng/g and the concentration at 24 h [9] was 137 ng/g. For the same compound, the Activity [10] was “Non-toxic”, the concentration at 7 h [11] was 882 ng/g and the concentration at 7 h [12] was 98 ng/mL. For the same compound, the concentration at 24 h [13] was 53 ng/g, the Activity [14] was “Active” and the MTD at 168 h [15] was 140 mg/kg. For the same compound, the Activity [16] was “Non-toxic”, the Activity [17] was “Non-toxic” and the TGI [18] was “Active”. For the same compound, the concentration at 7 h [19] was 2140 ng/g, the Activity [20] was “Non-toxic” and the Activity [21] was “Active”. The Activity [22] was “Non-toxic”, the TGI [23] was “Active” and the concentration at 24 h [24] was 57 ng/g. The Activity [25] was “Non-toxic”, the concentration at 24 h [26] was 7 ng/mL and the concentration at 24 h [27] was 48 ng/g.
